Data reported in patent US20240101570A1 (AMGEN INC., priority 2020, published 2024).

Key:
HCT116 MTAP null cells = test: HCT116 MTAP null cell proliferation / viability (CellTiter-Glo, 6 days); assay type: cell-based; settings: HCT116-MTAP null, 144 h, HCT116 MTAP null cells, 6 days, CellTiter-Glo; read-out: HCT-116 MTAP null IC50
Procedure, shortened: (§1)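 CellTiter-Glo luminescence, 6-day exposure, RPMI 1640 + 10% FBS. Dosing: 1:3 series (8-9 pts, top 1 or 10 μM) or 1:2 series (22 pts, top 10 or 50 μM), DMSO control. IC50 = 50% of control via curve fit.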

HCT116 WT cells = test: HCT116 WT cell proliferation / viability (CellTiter-Glo, 6 days); assay type: cell-based; settings: Homo sapiens, HCT-116, 144 h, HCT116 WT cells, 6 days, CellTiter-Glo; read-out: HCT-116 WT IC50
Procedure, shortened: as §1

| SMILES | IC50 (HCT116 MTAP null cells) [nM] | IC50 (HCT116 WT cells) [µM] |
| --- | --- | --- |
| CC1(CN(Cc2ccc(C(F)(F)F)cn2)C(=O)c2ccc3nc(N)c4c(c3c2)COC4)CC1 [Example 337, 4-amino-N-((1-methylcyclopropyl)methyl)-N-((5-(trifluoromethyl)-2-pyridinyl)methyl)-1,3-dihydrofuro[3,4-c]quinoline-8-carboxamide] | 33 | 0.714 |
| CC(C)(C)CN(Cc1ccc(C(F)(F)F)cn1)C(=O)c1ccc2nc(N)c3c(c2c1)COC3(C)C [Example 340, 4-amino-N-(2,2-dimethylpropyl)-3,3-dimethyl-N-((5-(trifluoromethyl)-2-pyridinyl)methyl)-1,3-dihydrofuro[3,4-c]quinoline-8-carboxamide] | 2950 | > 10 |
| CC1(CN(Cc2ccc(C(F)(F)F)cn2)C(=O)c2ccc3nc(N)c4c(c3c2)COC4(C)C)CC1 [Example 341, 4-amino-3,3-dimethyl-N-((1-methylcyclopropyl)methyl)-N-((5-(trifluoromethyl)-2-pyridinyl)methyl)-1,3-dihydrofuro[3,4-c]quinoline-8-carboxamide] | 212 | 3.79 |
| Nc1nc2ccc(C(=O)N(Cc3ccc(C4CC4)cn3)C3CC3)cc2c2c1COC2 [Example 343, 4-amino-N-cyclopropyl-N-((5-cyclopropyl-2-pyridinyl)methyl)-1,3-dihydrofuro[3,4-c]quinoline-8-carboxamide] | 270 | 8.24 |
| CN(Cc1ccc(C(F)(F)F)cn1)C(=O)c1cc2c3c(c(N)nc2cn1)COC3 [Example 344, 4-amino-N-methyl-N-((5-(trifluoromethyl)-2-pyridinyl)methyl)-1,3-dihydrofuro[3,4-c][1,7]naphthyridine-8-carboxamide] | 244 | > 10 |
| CC(C)N(Cc1ccc(C(F)(F)F)cn1)C(=O)c1cc2c3c(c(N)nc2cc1F)COC3 [Example 345, 4-amino-7-fluoro-N-(2-propanyl)-N-((5-(trifluoromethyl)-2-pyridinyl)methyl)-1,3-dihydrofuro[3,4-c]quinoline-8-carboxamide] | 11 | 0.21 |
| CC(C)N(Cc1ccc(C#N)cn1)C(=O)c1cc2c3c(c(N)nc2cn1)COC3 [Example 346, 4-amino-N-((5-cyano-2-pyridinyl)methyl)-N-(2-propanyl)-1,3-dihydrofuro[3,4-c][1,7]naphthyridine-8-carboxamide] | 1090 | 19.4 |
| N#Cc1ccc(CN(C(=O)c2cc3c4c(c(N)nc3cn2)COC4)C2CC2)nc1 [Example 347, 4-amino-N-((5-cyano-2-pyridinyl)methyl)-N-cyclopropyl-1,3-dihydrofuro[3,4-c][1,7]naphthyridine-8-carboxamide] | 712 | 43.8 |
| Nc1nc2cnc(C(=O)N(Cc3ccc(C4CC4)cn3)C3CC3)cc2c2c1COC2 [Example 348, 4-amino-N-cyclopropyl-N-((5-cyclopropyl-2-pyridinyl)methyl)-1,3-dihydrofuro[3,4-c][1,7]naphthyridine-8-carboxamide] | 155 | 9.04 |
| CN(Cc1ccc(C2CC2)cn1)C(=O)c1cc2c3c(c(N)nc2cn1)COC3 [Example 349, 4-amino-N-((5-cyclopropyl-2-pyridinyl)methyl)-N-methyl-1,3-dihydrofuro[3,4-c][1,7]naphthyridine-8-carboxamide] | 325 | 9.19 |
| CC(C)N(Cc1ccc(C2CC2)nc1)C(=O)c1ccc2nc(N)c3c(c2c1)CO[C@@H]3C [Example 350, (3R)-4-amino-N-((6-cyclopropyl-3-pyridinyl)methyl)-3-methyl-N-(2-propanyl)-1,3-dihydrofuro[3,4-c]quinoline-8-carboxamide] | 332 | 22.1 |
| CC(C)N(Cc1ccc(C#N)cn1)C(=O)c1ccc2nc(N)c3c(c2c1)CO[C@@H]3C [Example 354, (3R)-4-amino-N-((5-cyano-2-pyridinyl)methyl)-3-methyl-N-(2-propanyl)-1,3-dihydrofuro[3,4-c]quinoline-8-carboxamide] | 623 | 21.4 |

Continued, values first:

| IC50 (HCT116 MTAP null cells) [nM] | IC50 (HCT116 WT cells) [µM] | SMILES |
| --- | --- | --- |
| 24 | 1.41 | C[C@H]1OCc2c1c(N)nc1ccc(C(=O)N(Cc3ccc(C(F)(F)F)nn3)CC3CC3)cc21 [Example 333, (3R)-4-amino-N-(cyclopropylmethyl)-3-methyl-N-((6-(trifluoromethyl)-3-pyridazinyl)methyl)-1,3-dihydrofuro[3,4-c]quinoline-8-carboxamide] |
| 10 | 0.509 | C[C@H]1OCc2c1c(N)nc1ccc(C(=O)N(Cc3ccc(C(F)(F)F)cn3)CC3CC3)cc21 [Example 334, (3R)-4-amino-N-(cyclopropylmethyl)-3-methyl-N-((5-(trifluoromethyl)-2-pyridinyl)methyl)-1,3-dihydrofuro[3,4-c]quinoline-8-carboxamide] |
| 87 | 2.57 | Nc1nc2ccc(C(=O)N(Cc3ccc(C(F)(F)F)nn3)CC3CC3)cc2c2c1COC2 [Example 336, 4-amino-N-(cyclopropylmethyl)-N-((6-(trifluoromethyl)-3-pyridazinyl)methyl)-1,3-dihydrofuro[3,4-c]quinoline-8-carboxamide] |
| 406 | 5.83 | C[C@H]1OCc2c1c(N)nc1ccc(C(=O)N(Cc3ccc(C(F)(F)F)cn3)CC(C)(C)C)cc21 [Example 338, (3R)-4-amino-N-(2,2-dimethylpropyl)-3-methyl-N-((5-(trifluoromethyl)-2-pyridinyl)methyl)-1,3-dihydrofuro[3,4-c]quinoline-8-carboxamide] |
| 25 | 0.611 | C[C@H]1OCc2c1c(N)nc1ccc(C(=O)N(Cc3ccc(C(F)(F)F)cn3)CC3(C)CC3)cc21 [Example 339, (3R)-4-amino-3-methyl-N-((1-methylcyclopropyl)methyl)-N-((5-(trifluoromethyl)-2-pyridinyl)methyl)-1,3-dihydrofuro[3,4-c]quinoline-8-carboxamide] |
| 48 | 3.51 | C[C@H]1OCc2c1c(N)nc1ccc(C(=O)N(Cc3ccc(C(F)(F)F)cn3)C3CC3)cc21 [Example 351, (3R)-4-amino-N-cyclopropyl-3-methyl-N-((5-(trifluoromethyl)-2-pyridinyl)methyl)-1,3-dihydrofuro[3,4-c]quinoline-8-carboxamide] |
| 872 | > 10 | CN(Cc1ccc(C(F)(F)F)nn1)C(=O)c1ccc2nc(N)c3c(c2c1)COC3 [Example 352, 4-amino-N-methyl-N-((6-(trifluoromethyl)-3-pyridazinyl)methyl)-1,3-dihydrofuro[3,4-c]quinoline-8-carboxamide] |
| 124 | > 10 | C[C@H]1OCc2c1c(N)nc1ccc(C(=O)N(Cc3ccc(C(F)(F)F)nn3)C3CC3)cc21 [Example 353, (3R)-4-amino-N-cyclopropyl-3-methyl-N-((6-(trifluoromethyl)-3-pyridazinyl)methyl)-1,3-dihydrofuro[3,4-c]quinoline-8-carboxamide] |
| 171 | 19 | C[C@H]1OCc2c1c(N)nc1ccc(C(=O)N(Cc3ccc(C#N)cn3)C3CC3)cc21 [Example 355, (3R)-4-amino-N-((5-cyano-2-pyridinyl)methyl)-N-cyclopropyl-3-methyl-1,3-dihydrofuro[3,4-c]quinoline-8-carboxamide] |
